Here are results for 17 molecules from the supplement of paper PMC6331611.

SMILES strings stand for the structures. Converted amounts (≈) assume the structure as drawn. Counter-ions that a name gives are not always drawn.

For one assay, the system named is RAW264.7. Briefly: cytotoxicity (LDH release relative to maximum lysis); higher = more toxic. The conditions noted are these: 50 µM; 2 h. Background: Release of lactate dehydrogenase indicates damage to the cell membrane.
Assay [1] deals with Salmonella enterica serovar Typhimurium SL1344.
Assay [2] shares this test system. Briefly: intracellular MIC (10-fold luminescence reduction); higher = less potent. Conditions: RAW264.7 macrophages.

Regarding `O=C(CCCN1CCC(O)(c2ccc(Br)cc2)CC1)c1ccc(F)cc1` [BROMPERIDOL], the cytotoxicity in the assay on RAW264.7 was determined as 15%. Moreover, the MIC in assay [1] (LPM pH 5.8), in assay [1] (MHB) and in assay [1] (MOPS glucose minimal medium) was > 50 µM throughout. In addition, in assay [2], the “intracellular MIC” value was ≤ 0.78 µM.
As for `O=C(N[C@H](CO)[C@H](O)c1ccc([N+](=O)[O-])cc1)C(Cl)Cl` [CHLORAMPHENICOL], the cytotoxicity with RAW264.7 came out at 8.21%. The MIC in assay [1] (LPM pH 5.8) was ≤ 0.78 µM; in assay [1] (MHB) it was 12.5 µM (≈ 4.04 µg/mL); in assay [1] (MOPS glucose minimal medium) it was 3.13 µM (≈ 1.01 µg/mL). Further, in assay [2], the “intracellular MIC” value is ≤ 0.78 µM.
`C[CH2][Hg][S]c1ccccc1C(=O)[O-].[Na+]` [THIMEROSAL] yielded a cytotoxicity in the assay on RAW264.7 of 76.7%. Besides, the MIC in assay [1] (LPM pH 5.8), in assay [1] (MHB) and in assay [1] (MOPS glucose minimal medium) was ≤ 0.78 µM each time. In assay [2], the “intracellular MIC” value is ≤ 0.78 µM.
For the molecule `CO/N=C(\C(=O)N[C@@H]1C(=O)N2C(C(=O)O)=C(CSc3nc(=O)c(O)nn3C)CS[C@H]12)c1csc(N)n1` [CEFTRIAXONE SODIUM TRIHYDRATE], the cytotoxicity in the assay on RAW264.7 is 19.6%. The minimum inhibitory concentration (MIC) in assay [1] (LPM pH 5.8), in assay [1] (MHB) and in assay [1] (MOPS glucose minimal medium) was ≤ 0.78 µM throughout. Moreover, the “intracellular MIC” value in assay [2] was > 50 µM.
`CCn1nc(C(=O)O)c(=O)c2cc3c(cc21)OCO3` [CINOXACIN]: the cytotoxicity with RAW264.7 is 8.11%. The results for the minimal inhibitory concentration (MIC) in assay [1] (LPM pH 5.8), in assay [1] (MHB) and in assay [1] (MOPS glucose minimal medium) were ≤ 0.78 µM, > 50 µM and > 50 µM, respectively. Besides, the “intracellular MIC” value in assay [2] was ≤ 0.78 µM.
On to `Oc1c(Br)cc(Br)c2cccnc12` [BROXYQUINOLINE], for which the cytotoxicity with RAW264.7 came out at 15%. Moreover, the minimum inhibitory concentration (MIC) in assay [1] (LPM pH 5.8) is ≤ 0.78 µM; in assay [1] (MHB), 50 µM (≈ 15.1 µg/mL); in assay [1] (MOPS glucose minimal medium), 50 µM (≈ 15.1 µg/mL). The “intracellular MIC” value in assay [2] was > 50 µM.
`C[C@H]1O[C@@H](n2cc(F)c(=O)[nH]c2=O)[C@H](O)[C@@H]1O` [DOXIFLURIDINE] registered a cytotoxicity in the assay with RAW264.7 of 13%. The MIC in assay [1] (LPM pH 5.8) is ≤ 0.78 µM; in assay [1] (MHB), > 50 µM; in assay [1] (MOPS glucose minimal medium) it was 1.56 µM (≈ 0.384 µg/mL). In assay [2], the “intracellular MIC” value amounted to 6.25 µM.
In the same order, the values of `O=C(O)c1cn(-c2ccc(F)cc2)c2cc(N3CCNCC3)c(F)cc2c1=O` [SARAFLOXACIN HYDROCHLORIDE] are 21.5%, ≤ 0.78 µM, ≤ 0.78 µM, ≤ 0.78 µM and ≤ 0.78 µM.
In the same order, the values of `CCN(CC)C(C)CN1c2ccccc2Sc2ccccc21` (stereo not given) [ETHOPROPAZINE HYDROCHLORIDE] are 11.8%, > 50 µM, > 50 µM, > 50 µM and ≤ 0.78 µM.
Consider `COc1cc(Cc2cnc(N)nc2N)cc(OC)c1OC` [TRIMETHOPRIM], for which the cytotoxicity in the assay on RAW264.7 amounted to 19.9%. In addition, the MIC in assay [1] (LPM pH 5.8) is 3.13 µM (≈ 0.909 µg/mL); in assay [1] (MHB), ≤ 0.78 µM; in assay [1] (MOPS glucose minimal medium), ≤ 0.78 µM. Besides, the “intracellular MIC” value in assay [2] was ≤ 0.78 µM.
For `OC[C@H]1O[C@H](O[C@]2(CCl)O[C@H](CCl)[C@@H](O)[C@@H]2O)[C@H](O)[C@@H](O)[C@H]1Cl` [SUCRALOSE], the cytotoxicity in the assay with RAW264.7 amounted to 15%. The values for the MIC in assay [1] (LPM pH 5.8), in assay [1] (MHB) and in assay [1] (MOPS glucose minimal medium) were > 50 µM, ≤ 0.78 µM and 6.25 µM (≈ 2.49 µg/mL), respectively. Also, the “intracellular MIC” value in assay [2] was ≤ 0.78 µM.
`CCCCCCCCNC(C)C(O)c1ccc(SC(C)C)cc1` (stereo not given) [SULOCTIDIL] showed a cytotoxicity in the assay on RAW264.7 of 33.3%. Besides, the MIC in assay [1] (LPM pH 5.8) is 50 µM (≈ 16.9 µg/mL); in assay [1] (MHB), > 50 µM; in assay [1] (MOPS glucose minimal medium) it was > 50 µM. In assay [2], the “intracellular MIC” value worked out at 1.56 µM.
Regarding `CC1CCc2cc(F)cc3c(=O)c(C(=O)O)cn1c23` (stereo not given) [FLUMEQUINE], the cytotoxicity in the assay on RAW264.7 came out at 20.1%. Further, the MIC in assay [1] (LPM pH 5.8) is ≤ 0.78 µM; in assay [1] (MHB), 6.25 µM (≈ 1.63 µg/mL); in assay [1] (MOPS glucose minimal medium) it was 1.56 µM (≈ 0.408 µg/mL). For the same molecule, the “intracellular MIC” value in assay [2] was > 50 µM.
In the same order, the values of `CO/N=C1\CN(c2nc3c(cc2F)c(=O)c(C(=O)O)cn3C2CC2)CC1CN` (stereo not given) [GEMIFLOXACIN MESYLATE] are 5.86%, ≤ 0.78 µM, ≤ 0.78 µM, ≤ 0.78 µM and 1.56 µM.
Taken in the same sequence, the figures for `NC1CCN(c2c(F)cc3c(=O)c(C(=O)O)cn(C4CC4)c3c2Cl)C1` (stereo not given) [CLINAFOXACIN HYDROCHLORIDE] were 15.8%, ≤ 0.78 µM, ≤ 0.78 µM, ≤ 0.78 µM and ≤ 0.78 µM.
Taken in the same sequence, the figures for `COc1ccc(Cc2cnc(N)nc2N)cc1OC` [DIAVERIDINE] were 6.9%, 50 µM (≈ 13 µg/mL), 1.56 µM (≈ 0.406 µg/mL), 6.25 µM (≈ 1.63 µg/mL) and 1.56 µM.
In the assay with RAW264.7, `CO[C@H]1O[C@@H]2O[C@@]3(C)CC[C@H]4[C@H](C)CC[C@@H]([C@H]1C)[C@@]24OO3` [ARTEMETHER] returned a cytotoxicity of 7.51%. Also, the minimum inhibitory concentration (MIC) in assay [1] (LPM pH 5.8) was 50 µM (≈ 14.9 µg/mL); in assay [1] (MHB) it was > 50 µM; in assay [1] (MOPS glucose minimal medium), > 50 µM. The “intracellular MIC” value in assay [2] was determined as 12.5 µM.

For orientation: MIC means the lowest concentration found to suppress growth.
